The conditions of series [1]: from C=CCOCc1cc(NC(=O)OC(C)(C)C)cc(Nc2nccc(-c3cccc(COCC=C)c3)n2)c1; rcm bond; Zhan Catalyst 1B; dichloromethane; 6.66 mM; 50.0 °C; 3.0 h.
Another series deals with T1, Ab1 (h) (Homo sapiens, UniProt P00519).
T1 construct: purchased Eurofins
The series can be described thus: Radioisotope labeling kinase assay (Eurofins), Ab1. The series is classed as biochemical. To be noted: 1 μM compound; read-out: Inhibitory activity per unit concentration/Activity % Ab1 (h). The procedure: (§1) An activity to a human recombinant protein kinase of a series of compounds was determined by a radioisotope labeling method, which was provided by Eurofins Company. A compound to be detected was mixed with a corresponding protein kinase buffer (20 mM propyl sulfonate (MOPS, […].), 1 mM EDTA, 0.10 β-mercaptoethanol, 0.010 Brij-35, […], and 1 mg/mL BSA), the mixture was added into a reaction system (100 μM reaction substrate […], 8 mM MOPS with a pH value of 7.0, 10 mM MgAcetate, 0.2 mM EDTA, and a certain concentration of γ-^33P-ATP). After adding an MgATP composite solution, the reaction was started at room temperature for 40 minutes, and the reaction was terminated by adding 5 μl of […] solution. Then, 10 μl of reaction solution was dropwise added onto a filter and washed with 75 mM phosphoric acid solution for three times, 5 minutes each time, then washed with methanol once again, and dried and subjected to scintillation counting.

A further series deals with T2, BTK (h) (Homo sapiens, UniProt Q06187).
T2 construct: purchased Eurofins
Description: Radioisotope labeling kinase assay (Eurofins), BTK. As to conditions: 1 μM compound; read-out: Inhibitory activity per unit concentration/Activity % BTK (h). The series is classed as biochemical. As to the method:
as §1

The target in a further series is T3, Flt3 (D835Y) (h) (Homo sapiens, UniProt P36888, D835Y).
T3 construct: purchased Eurofins
T3 sequence (P36888 27-993 D835Y): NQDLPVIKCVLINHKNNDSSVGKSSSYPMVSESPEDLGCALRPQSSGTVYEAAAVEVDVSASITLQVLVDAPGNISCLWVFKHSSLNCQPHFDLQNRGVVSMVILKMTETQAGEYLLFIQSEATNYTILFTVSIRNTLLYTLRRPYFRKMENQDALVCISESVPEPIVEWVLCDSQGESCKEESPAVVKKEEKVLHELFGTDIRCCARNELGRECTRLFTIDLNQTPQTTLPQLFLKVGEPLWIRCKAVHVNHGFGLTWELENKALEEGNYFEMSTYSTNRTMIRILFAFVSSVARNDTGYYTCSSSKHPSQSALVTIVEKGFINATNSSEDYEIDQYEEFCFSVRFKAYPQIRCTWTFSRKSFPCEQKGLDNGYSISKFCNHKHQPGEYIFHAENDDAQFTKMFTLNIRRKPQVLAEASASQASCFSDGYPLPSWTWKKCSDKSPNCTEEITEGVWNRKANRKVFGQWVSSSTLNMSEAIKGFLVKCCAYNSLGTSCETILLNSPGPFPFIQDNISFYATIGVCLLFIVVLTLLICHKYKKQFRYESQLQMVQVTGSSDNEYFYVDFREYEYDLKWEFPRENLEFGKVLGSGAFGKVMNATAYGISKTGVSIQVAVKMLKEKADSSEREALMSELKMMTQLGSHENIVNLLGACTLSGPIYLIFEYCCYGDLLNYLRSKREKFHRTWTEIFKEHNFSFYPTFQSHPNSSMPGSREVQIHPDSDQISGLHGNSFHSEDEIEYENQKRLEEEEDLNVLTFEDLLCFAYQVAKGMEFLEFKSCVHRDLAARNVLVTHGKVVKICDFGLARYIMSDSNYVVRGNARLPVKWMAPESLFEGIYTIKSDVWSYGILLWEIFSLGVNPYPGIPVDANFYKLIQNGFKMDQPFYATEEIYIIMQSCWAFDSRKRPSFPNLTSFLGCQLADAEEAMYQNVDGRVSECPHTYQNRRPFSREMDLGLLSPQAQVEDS
Description: Radioisotope labeling kinase assay (Eurofins), Flt3 (D835Y). The series is classed as biochemical. As to conditions: 1 μM compound; read-out: Inhibitory activity per unit concentration/Activity % Flt3 (D835Y) (h). As to the method:
as §1

The target of a further series is T4, Flt3 (h) (Homo sapiens, UniProt P36888).
T4 construct: purchased Eurofins
T4 sequence (P36888 27-993): T3 sequence (P36888 27-993 D835Y) with Y809D
Description: Radioisotope labeling kinase assay (Eurofins), Flt3. The series is classed as biochemical. As to conditions: 1 μM compound; read-out: Inhibitory activity per unit concentration/Activity % Flt3 (h). As to the method:
as §1

For the next series, the target named is T5, JAK3 (h) (Homo sapiens, UniProt P52333).
T5 construct: purchased Eurofins
T5 sequence (P52333 1-1124): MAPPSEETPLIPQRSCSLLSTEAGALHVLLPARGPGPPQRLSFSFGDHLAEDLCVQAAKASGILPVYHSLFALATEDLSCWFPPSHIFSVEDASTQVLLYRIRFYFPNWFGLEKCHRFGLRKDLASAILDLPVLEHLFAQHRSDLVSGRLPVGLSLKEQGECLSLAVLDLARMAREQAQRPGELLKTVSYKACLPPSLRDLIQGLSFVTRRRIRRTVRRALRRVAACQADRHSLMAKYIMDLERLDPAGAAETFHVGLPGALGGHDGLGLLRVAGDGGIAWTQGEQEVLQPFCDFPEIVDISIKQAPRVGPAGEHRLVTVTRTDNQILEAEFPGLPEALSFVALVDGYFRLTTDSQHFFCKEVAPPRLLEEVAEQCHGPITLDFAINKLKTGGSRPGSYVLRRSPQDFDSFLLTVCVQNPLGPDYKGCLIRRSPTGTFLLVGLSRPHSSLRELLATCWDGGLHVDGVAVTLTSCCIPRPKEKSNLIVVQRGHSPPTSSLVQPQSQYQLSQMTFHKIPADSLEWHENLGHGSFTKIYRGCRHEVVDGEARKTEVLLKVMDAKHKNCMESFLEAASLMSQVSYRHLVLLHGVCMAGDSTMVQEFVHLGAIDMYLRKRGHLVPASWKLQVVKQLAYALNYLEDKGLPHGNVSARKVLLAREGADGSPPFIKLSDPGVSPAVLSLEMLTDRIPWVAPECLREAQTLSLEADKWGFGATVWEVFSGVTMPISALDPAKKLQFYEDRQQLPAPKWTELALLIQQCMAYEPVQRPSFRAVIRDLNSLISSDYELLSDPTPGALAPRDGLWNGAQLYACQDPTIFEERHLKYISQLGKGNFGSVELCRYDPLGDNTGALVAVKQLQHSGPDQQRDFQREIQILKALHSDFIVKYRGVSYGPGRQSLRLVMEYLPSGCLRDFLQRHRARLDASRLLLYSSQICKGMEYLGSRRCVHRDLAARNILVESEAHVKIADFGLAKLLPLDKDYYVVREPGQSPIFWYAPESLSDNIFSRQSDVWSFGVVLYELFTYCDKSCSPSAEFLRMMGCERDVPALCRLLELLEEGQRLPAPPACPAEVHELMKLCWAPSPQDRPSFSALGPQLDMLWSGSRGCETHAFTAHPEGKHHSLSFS
Description: Radioisotope labeling kinase assay (Eurofins), JAK3. To be noted: 1 μM compound; read-out: Inhibitory activity per unit concentration/Activity % JAK3 (h). The series is classed as biochemical. The procedure: as §1

Positions count from the first letter of the chain named.

T2 sequence (Q06187 whole entry): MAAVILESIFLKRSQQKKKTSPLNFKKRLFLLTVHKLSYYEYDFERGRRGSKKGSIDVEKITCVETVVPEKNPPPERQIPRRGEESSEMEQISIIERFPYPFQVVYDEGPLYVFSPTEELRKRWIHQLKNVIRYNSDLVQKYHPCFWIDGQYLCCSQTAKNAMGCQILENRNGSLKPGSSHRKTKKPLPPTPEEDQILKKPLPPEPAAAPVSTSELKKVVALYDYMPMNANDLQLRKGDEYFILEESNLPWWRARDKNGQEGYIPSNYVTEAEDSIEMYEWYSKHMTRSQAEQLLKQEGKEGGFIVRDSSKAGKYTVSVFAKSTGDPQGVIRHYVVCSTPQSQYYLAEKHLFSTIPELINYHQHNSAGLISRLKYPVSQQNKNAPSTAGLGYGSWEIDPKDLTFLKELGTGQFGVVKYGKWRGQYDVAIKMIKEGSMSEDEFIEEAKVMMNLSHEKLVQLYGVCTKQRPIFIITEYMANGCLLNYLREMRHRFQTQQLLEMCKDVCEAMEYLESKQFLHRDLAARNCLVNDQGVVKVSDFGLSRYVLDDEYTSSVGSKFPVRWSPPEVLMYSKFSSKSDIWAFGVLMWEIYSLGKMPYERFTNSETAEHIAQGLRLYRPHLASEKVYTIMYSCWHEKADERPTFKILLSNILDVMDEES
T1 sequence (P00519 whole entry): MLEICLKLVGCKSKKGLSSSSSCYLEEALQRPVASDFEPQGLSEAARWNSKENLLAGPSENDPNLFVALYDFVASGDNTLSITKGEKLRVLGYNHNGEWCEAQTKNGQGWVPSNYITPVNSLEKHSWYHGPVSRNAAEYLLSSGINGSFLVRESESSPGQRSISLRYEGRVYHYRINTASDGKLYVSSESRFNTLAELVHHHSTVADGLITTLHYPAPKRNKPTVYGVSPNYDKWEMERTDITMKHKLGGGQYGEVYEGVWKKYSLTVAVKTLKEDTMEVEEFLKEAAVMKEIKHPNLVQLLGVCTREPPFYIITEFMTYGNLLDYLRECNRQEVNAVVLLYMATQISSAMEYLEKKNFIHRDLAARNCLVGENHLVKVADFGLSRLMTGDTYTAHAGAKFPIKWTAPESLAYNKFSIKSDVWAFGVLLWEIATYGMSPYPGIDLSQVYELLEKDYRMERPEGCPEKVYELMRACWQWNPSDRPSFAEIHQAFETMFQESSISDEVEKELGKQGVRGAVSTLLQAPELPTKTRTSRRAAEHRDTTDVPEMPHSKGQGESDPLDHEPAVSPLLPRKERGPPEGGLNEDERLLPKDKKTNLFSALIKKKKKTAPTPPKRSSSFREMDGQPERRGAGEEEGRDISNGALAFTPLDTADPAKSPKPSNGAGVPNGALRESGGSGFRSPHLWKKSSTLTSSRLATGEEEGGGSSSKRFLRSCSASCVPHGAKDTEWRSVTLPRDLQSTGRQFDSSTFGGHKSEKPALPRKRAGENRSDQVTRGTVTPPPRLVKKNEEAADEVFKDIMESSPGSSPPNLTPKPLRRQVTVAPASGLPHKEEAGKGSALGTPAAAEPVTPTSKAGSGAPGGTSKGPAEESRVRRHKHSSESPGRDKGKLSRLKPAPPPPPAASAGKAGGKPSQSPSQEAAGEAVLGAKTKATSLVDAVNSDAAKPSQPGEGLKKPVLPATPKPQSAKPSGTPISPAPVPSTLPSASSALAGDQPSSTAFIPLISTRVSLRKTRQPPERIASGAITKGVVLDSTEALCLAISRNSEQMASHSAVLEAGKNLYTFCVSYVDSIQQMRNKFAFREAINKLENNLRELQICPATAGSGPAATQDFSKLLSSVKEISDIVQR

Regarding `CC(C)(C)OC(=O)Nc1cc2cc(c1)Nc1nccc(n1)-c1cccc(c1)COCC=CCOC2`, in series [1], the ring closure, yield of all isomers was 50%.

Take `CCCC#CC(=O)Nc1cc2cc(c1)Nc1nccc(n1)-c1cccc(c1)COC/C=C/CN(C)C2` [XVII-4]: the activity at 1 µM turned out to be 52% on Ab1 (h); 80% at BTK (h); 3% on Flt3 (D835Y) (h); 7% on Flt3 (h); 83% at JAK3 (h).

Take `CN1C/C=C/COCc2cccc(c2)-c2ccnc(n2)Nc2cc(cc(NC(=O)C#CCN3CCOCC3)c2)C1` [XVII-5]: the activity at 1 µM at Ab1 (h) was found to be 45%; at BTK (h), 72%; at Flt3 (D835Y) (h), 1%; at Flt3 (h), 4%; at JAK3 (h), 60%.

The values above are taken from patent publication US20240425518A1, “N-MACROCYCLIC AMIDE COMPOUNDS, PREPARATION METHODS THEREOF AND APPLICATIONS THEREOF AS MEDICAMENTS” (Chengdu FANXI Biopharma Co., Ltd., priority 2023, published 2024).
